Experimental data: patent US6476059B1, “Use of polycyclic 2-aminothiazole systems for the treatment of obesity” (Aventis Pharma Deutschland GmbH, priority 1999, dated 2002)

Key:
[1] = tested on: male NMRI mice; test: Anorectic effect: cumulative condensed milk consumption after gavage; format: in vivo; conditions: oral dose 50 mg/kg by gavage, feed withdrawn for 24 hours; for Reduction in the cumulative milk consumption as % of the controls: compared with untreated control animals; for cumulative milk consumption by the treated animals: condensed milk offered 30 minutes after administration, consumption determined every half hour for 7 hours
Protocol: The anorectic effect was tested on male NMRI mice. After withdrawal of feed for 24 hours, the test product was administered by gavage. The animals were housed singly and had free access to drinking water and, 30 minutes after administration of the product, they were offered condensed milk. The consumption of condensed milk was determined, and the general behavior of the animals was inspected, every half hour for 7 hours. The measured milk consumption was compared with that of untreated control animals.

In the case of `N=C(Nc1ccccc1)Nc1nc2c(s1)Cc1cc(Cl)ccc1-2` [Example 7, N-(6-Chloro-8H-indeno[1,2-d]thiazol-2-yl)-N′-phenylguanidine], the melting point is reported as 210 °C.
In the case of `N#CNc1nc2c(s1)Cc1cc(Cl)ccc1-2` [Example 4, 6-Chloro-8H-indeno[1,2-d]thiazol-2-yl-cyanamide], the melting point is reported as 225 °C.
`CS(=O)(=O)c1ccc2c(c1)-c1nc(N)sc1C2.Cl` gave a melting point greater than 230 °C.
For `Cc1cccc(Oc2ccc3c(c2)Cc2sc(N)nc2-3)c1.Cl` [Example 27, 6-m-Tolyloxy-8H-indeno[1,2-d]thiazol-2-yl-amine hydrochloride], the “Reduction in the cumulative milk consumption as % of the controls” value (“Reduction … as % of the controls” below) [1] was 79%, the “cumulative milk consumption by the treated animals” value [1] was 5/0.74 ml and the melting point was 174 °C.
For `Br.CN(C)c1nc2c(s1)Cc1cc(C#N)ccc1-2` [Example 2, 2-Dimethylamino-8H-indeno[1,2-d]thiazole-6-carbonitrile hydrobromide], the “Reduction … as % of the controls” value [1] was 85%, the “cumulative milk consumption by the treated animals” value [1] was 5/0.76 ml and the melting point was greater than 300 °C.
In the case of `CNc1nc2c(s1)Cc1cc(-c3cccnc3)ccc1-2.Cl` [Example 26, Methyl(6-pyridin-3-yl-8H-indeno[1,2-d]thiazol-2-yl)amine hydrochloride], the “Reduction … as % of the controls” value [1] is reported as 77%, the “cumulative milk consumption by the treated animals” value [1] is reported as 5/0.68 ml and the melting point is reported as 225 °C.
With `CNc1nc2c(s1)Cc1cc(OCC(F)(F)C(F)(F)F)ccc1-2.Cl` [Example 18, Methyl[6-(2,2,3,3,3-pentafluoropropoxy)-8H-indeno[1,2-d]thiazol-2-yl]amine hydrochloride] the “Reduction … as % of the controls” value [1] was 90%, the “cumulative milk consumption by the treated animals” value [1] was 5/0.38 ml and the melting point was 258 °C.
With `O=CNc1nc2c(s1)Cc1cc(Cl)ccc1-2` [Example 6, N-(6-chloro-8H-indeno[1,2-d]thiazol-2-yl)formamide] the “Reduction … as % of the controls” value [1] was 77%, the “cumulative milk consumption by the treated animals” value [1] was 5/0.96 ml and the melting point was 295 °C.
